Assay results published in patent publication US9522888B2, “Substituted bicyclic compounds” (BRISTOL-MYERS SQUIBB COMPANY, priority 2014, dated 2016).

biological target: S1P3 (membranes prepared from EDG3-Gal5-bla HEK293T cells) (Homo sapiens (Human), UniProt Q99500); experiment: Receptor [35S] GTPγS binding assay (S1P3 GTPγS); assay type: biochemical; conditions: phosphate examples; read-out: S1P3 GTPγS
Outline: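 Membranes (3 μg protein/well) from S1P1/CHO cells or EDG3-Gal5-bla HEK293T cells (S1P3) were incubated 45 min at room temperature with 0.2 nM final [35S]GTPγS in HEPES pH 7.5 buffer with 10 μM GDP, MgCl2 and saponin. Bound label counted after filtration; EC50 from 11-point, 3-fold dilutions.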

S1P3 (membranes prepared from EDG3-Gal5-bla HEK293T cells), sequence (Q99500 whole entry): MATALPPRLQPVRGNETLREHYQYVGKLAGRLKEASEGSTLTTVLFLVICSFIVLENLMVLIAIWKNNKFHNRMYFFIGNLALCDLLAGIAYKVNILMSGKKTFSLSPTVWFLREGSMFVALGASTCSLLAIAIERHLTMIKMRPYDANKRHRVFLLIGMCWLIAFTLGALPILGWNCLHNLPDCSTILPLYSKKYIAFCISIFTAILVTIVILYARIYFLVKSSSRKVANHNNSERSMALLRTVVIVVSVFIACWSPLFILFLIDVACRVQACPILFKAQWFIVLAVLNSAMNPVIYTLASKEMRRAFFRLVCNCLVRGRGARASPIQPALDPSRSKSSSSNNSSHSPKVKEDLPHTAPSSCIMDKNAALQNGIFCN

SMILES | EC50 [nM]
CCCCCCCCCCOC[C@H]1CCc2cc([C@H]3CC[C@](N)(COP(=O)(O)O)C3)ccc2C1 [compound 450] | > 625
N[C@]1(COP(=O)(O)O)CC[C@H](c2ccc3c(c2)CC[C@@H](COc2ccc(F)cc2)C3)C1 [compound 449] | > 625
CCCCCC[C@H]1COc2cc([C@@H]3CC[C@](N)(COP(=O)(O)O)C3)ccc2C1 [compound 425] | > 625
Cc1ccc(OC[C@H]2CCc3cc([C@H]4CC[C@](N)(COP(=O)(O)O)C4)ccc3C2)cc1 [compound 466] | > 625
CCC/C=C\CO[C@H]1CCc2cc([C@H]3CC[C@](N)(COP(=O)(O)O)C3)ccc2C1 [compound 437] | > 625
N[C@@]1(COP(=O)(O)O)CC[C@@H](c2ccc3c(c2)CC[C@H](OCCOc2ccccc2)C3)C1 (single isomer, unassigned) [compound 582] | > 625
CCCCCC[C@H]1Cc2ccc([C@H]3CC[C@](N)(COP(=O)(O)O)C3)cc2CO1 [compound 426] | > 625

The remaining lines, values ahead:

EC50 [nM] | SMILES
> 625 | COc1ccccc1CCC[C@@H]1CCc2cc([C@H]3CC[C@](N)(COP(=O)(O)O)C3)ccc2C1 [compound 563]
> 625 | N[C@@]1(COP(=O)(O)O)CC[C@@H](c2ccc3c(c2)CC[C@H](CCc2cccnc2)C3)C1 (single isomer, unassigned) [compound 606]
> 50 | N[C@]1(COP(=O)(O)O)CC[C@H](c2ccc3c(c2)CC[C@H](CSCCc2ccccc2)C3)C1 [compound 521]
> 100 | COCCC/C=C/[C@H]1CCc2cc([C@H]3CC[C@](N)(COP(=O)(O)O)C3)ccc2C1 [compound 638]

biological target: S1P1 (membranes prepared from S1P1/CHO cells) (Homo sapiens (Human), UniProt P21453); experiment: Receptor [35S] GTPγS binding assay (S1P1 GTPγS); assay type: biochemical; conditions: phosphate examples; read-out: S1P1 GTPγS
Sequence (P21453 whole entry): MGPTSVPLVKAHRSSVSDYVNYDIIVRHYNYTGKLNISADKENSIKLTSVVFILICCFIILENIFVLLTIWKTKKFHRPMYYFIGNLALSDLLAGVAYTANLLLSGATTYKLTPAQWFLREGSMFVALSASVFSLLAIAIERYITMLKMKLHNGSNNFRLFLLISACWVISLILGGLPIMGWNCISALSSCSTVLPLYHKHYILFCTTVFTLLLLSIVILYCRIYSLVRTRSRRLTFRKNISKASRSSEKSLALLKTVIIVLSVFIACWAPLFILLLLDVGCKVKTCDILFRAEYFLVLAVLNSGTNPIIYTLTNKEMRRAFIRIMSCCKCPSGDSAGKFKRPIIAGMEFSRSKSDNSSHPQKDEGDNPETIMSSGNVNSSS
Outline: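 Membranes from S1P1-expressing CHO cells (3 μg protein/well) incubated with compound (11-point, 3-fold dilution) and 0.2 nM final [35S]GTPγS, 45 min at room temperature. Assay buffer: 20 mM HEPES pH 7.5, 10 mM MgCl2, 150 mM NaCl, 10 μM GDP, 0.1% fatty-acid-free BSA, 10 μg/ml saponin. Filter-bound radioactivity counted by scintillation; EC50 derived.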

SMILES | EC50 [nM]
CCCCCCCCCCOC[C@H]1CCc2cc([C@H]3CC[C@](N)(COP(=O)(O)O)C3)ccc2C1 [compound 450] | < 10
N[C@]1(COP(=O)(O)O)CC[C@H](c2ccc3c(c2)CC[C@@H](COc2ccc(F)cc2)C3)C1 [compound 449] | 10 to 100
CCCCCC[C@H]1COc2cc([C@@H]3CC[C@](N)(COP(=O)(O)O)C3)ccc2C1 [compound 425] | < 10
Cc1ccc(OC[C@H]2CCc3cc([C@H]4CC[C@](N)(COP(=O)(O)O)C4)ccc3C2)cc1 [compound 466] | 10 to 100
CCC/C=C\CO[C@H]1CCc2cc([C@H]3CC[C@](N)(COP(=O)(O)O)C3)ccc2C1 [compound 437] | < 10
N[C@@]1(COP(=O)(O)O)CC[C@@H](c2ccc3c(c2)CC[C@H](OCCOc2ccccc2)C3)C1 (single isomer, unassigned) [compound 582] | 10 to 100
CCCCCC[C@H]1Cc2ccc([C@H]3CC[C@](N)(COP(=O)(O)O)C3)cc2CO1 [compound 426] | < 10

More lines, now with the values ahead:

EC50 [nM] | SMILES
100 to 1000 | COc1ccccc1CCC[C@@H]1CCc2cc([C@H]3CC[C@](N)(COP(=O)(O)O)C3)ccc2C1 [compound 563]
10 to 100 | N[C@@]1(COP(=O)(O)O)CC[C@@H](c2ccc3c(c2)CC[C@H](CCc2cccnc2)C3)C1 (single isomer, unassigned) [compound 606]
< 10 | N[C@]1(COP(=O)(O)O)CC[C@H](c2ccc3c(c2)CC[C@H](CSCCc2ccccc2)C3)C1 [compound 521]
10 to 100 | COCCC/C=C/[C@H]1CCc2cc([C@H]3CC[C@](N)(COP(=O)(O)O)C3)ccc2C1 [compound 638]

biological target: human S1P1 (Homo sapiens (Human), UniProt P21453); experiment: S1P1 binding assay (33P-S1P radioligand competition, CHO cell membranes); conditions: phosphate examples; read-out: S1P1 Binding
Sequence (P21453 whole entry): as above
Outline: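 Radioligand is 33P-S1P, competing for membranes from human S1P1-expressing CHO cells. Membranes resuspended in 50 mM HEPES pH 7.5, 100 mM NaCl, 1 mM MgCl2, 2 mM EDTA.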

SMILES | IC50 [nM]
CCCCCCCCCCOC[C@H]1CCc2cc([C@H]3CC[C@](N)(COP(=O)(O)O)C3)ccc2C1 [compound 450] | < 10
N[C@]1(COP(=O)(O)O)CC[C@H](c2ccc3c(c2)CC[C@@H](COc2ccc(F)cc2)C3)C1 [compound 449] | < 10
CCCCCC[C@H]1COc2cc([C@@H]3CC[C@](N)(COP(=O)(O)O)C3)ccc2C1 [compound 425] | < 10
Cc1ccc(OC[C@H]2CCc3cc([C@H]4CC[C@](N)(COP(=O)(O)O)C4)ccc3C2)cc1 [compound 466] | 10 to 100
CCC/C=C\CO[C@H]1CCc2cc([C@H]3CC[C@](N)(COP(=O)(O)O)C3)ccc2C1 [compound 437] | < 10
N[C@@]1(COP(=O)(O)O)CC[C@@H](c2ccc3c(c2)CC[C@H](OCCOc2ccccc2)C3)C1 (single isomer, unassigned) [compound 582] | < 10
CCCCCC[C@H]1Cc2ccc([C@H]3CC[C@](N)(COP(=O)(O)O)C3)cc2CO1 [compound 426] | 10 to 100

Further lines, results first:

IC50 [nM] | SMILES
100 to 1000 | COc1ccccc1CCC[C@@H]1CCc2cc([C@H]3CC[C@](N)(COP(=O)(O)O)C3)ccc2C1 [compound 563]
10 to 100 | N[C@@]1(COP(=O)(O)O)CC[C@@H](c2ccc3c(c2)CC[C@H](CCc2cccnc2)C3)C1 (single isomer, unassigned) [compound 606]
< 10 | N[C@]1(COP(=O)(O)O)CC[C@H](c2ccc3c(c2)CC[C@H](CSCCc2ccccc2)C3)C1 [compound 521]
< 10 | COCCC/C=C/[C@H]1CCc2cc([C@H]3CC[C@](N)(COP(=O)(O)O)C3)ccc2C1 [compound 638]

biological target: hS1P1/CHO cells (Homo sapiens (Human), UniProt P21453); experiment: hS1P1 ERK phosphorylation (S1P1 pERK); assay type: cell-based; conditions: phosphate examples
Sequence (P21453 whole entry): as above
Outline: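 CHO cells expressing human S1P1, serum-starved 2 h, exposed to compound in HBSS/20 mM HEPES for 7 min at 37° C. Lysates assayed for phospho-ERK by SureFire kit; response given as % activation relative to 10 μM S1P.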

SMILES | EC50 [nM]
CCCCCCCCCCOC[C@H]1CCc2cc([C@H]3CC[C@](N)(COP(=O)(O)O)C3)ccc2C1 [compound 450] | 10 to 100
N[C@]1(COP(=O)(O)O)CC[C@H](c2ccc3c(c2)CC[C@@H](COc2ccc(F)cc2)C3)C1 [compound 449] | 10 to 100
CCCCCC[C@H]1COc2cc([C@@H]3CC[C@](N)(COP(=O)(O)O)C3)ccc2C1 [compound 425] | < 10
Cc1ccc(OC[C@H]2CCc3cc([C@H]4CC[C@](N)(COP(=O)(O)O)C4)ccc3C2)cc1 [compound 466] | 10 to 100
CCC/C=C\CO[C@H]1CCc2cc([C@H]3CC[C@](N)(COP(=O)(O)O)C3)ccc2C1 [compound 437] | < 10
N[C@@]1(COP(=O)(O)O)CC[C@@H](c2ccc3c(c2)CC[C@H](OCCOc2ccccc2)C3)C1 (single isomer, unassigned) [compound 582] | < 10
CCCCCC[C@H]1Cc2ccc([C@H]3CC[C@](N)(COP(=O)(O)O)C3)cc2CO1 [compound 426] | < 10

Now from value to compound:

EC50 [nM] | SMILES
100 to 1000 | COc1ccccc1CCC[C@@H]1CCc2cc([C@H]3CC[C@](N)(COP(=O)(O)O)C3)ccc2C1 [compound 563]
< 10 | N[C@@]1(COP(=O)(O)O)CC[C@@H](c2ccc3c(c2)CC[C@H](CCc2cccnc2)C3)C1 (single isomer, unassigned) [compound 606]
10 to 100 | N[C@]1(COP(=O)(O)O)CC[C@H](c2ccc3c(c2)CC[C@H](CSCCc2ccccc2)C3)C1 [compound 521]
< 10 | COCCC/C=C/[C@H]1CCc2cc([C@H]3CC[C@](N)(COP(=O)(O)O)C3)ccc2C1 [compound 638]
